Results on six molecules are retold here after ChEMBL document CHEMBL5223115, “A guanidinium group is an effective mimic of the tertiary carbocation formed by isopentenyl diphosphate isomerase” (Bioorg Med Chem Lett, 2022).

Each structure is given as a SMILES string. Bounds are passed on as bounds.

Test [1] addresses T1, Isopentenyl-diphosphate Delta-isomerase (Escherichia coli (strain K12), UniProt Q46822).
T1 sequence (Q46822 whole entry): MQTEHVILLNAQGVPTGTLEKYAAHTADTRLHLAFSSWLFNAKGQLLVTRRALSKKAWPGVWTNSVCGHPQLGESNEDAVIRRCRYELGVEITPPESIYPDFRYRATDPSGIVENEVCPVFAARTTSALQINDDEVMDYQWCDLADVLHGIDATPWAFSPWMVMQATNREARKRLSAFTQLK
As to the kind of experiment: Binding affinity to Escherichia coli IPP isomerase assessed as inhibition constant.

Test [2] addresses T1, Isopentenyl-diphosphate Delta-isomerase. Briefly: Inhibition of Escherichia coli IPP isomerase.
Test [3] has the same target. As to the kind of experiment: Competitive inhibition of Escherichia coli IPP isomerase assessed as inhibition constant by Lineweaver-burk plot analysis.
A short description of test [4]: Binding affinity to IPP isomerase (unknown origin) assessed as dissociation constant. More on the design: species or system Homo sapiens.

By Ki is commonly meant a dissociation constant, usually derived from enzyme kinetics or from competition with a known ligand. In general, IC50 refers to the concentration at which inhibition is half-maximal. The low end stands for inhibition by little substance, the high end for a need for much substance. `N=C(N)NCCP(=O)(O)CP(=O)(O)O`: the Ki in test [1] and in test [3] was 129 nM in each case. In test [2], this molecule displayed an IC50 of 0.7 µM.
`CN(C)CCCP(=O)(O)CP(=O)(O)O`: the IC50 in test [2] was determined as 33 µM.
Usually Kd stands for the free concentration of one partner at which half of the binding sites on the other are occupied at equilibrium, for simple one-to-one binding. Take `NC(N)=NCP(=O)(O)CP(=O)(O)O`: in test [4], the Kd was found to be 1200 nM. Besides, the Ki in test [1] is 120 nM.
With `CS(=O)(=O)NC(=O)CCNC(=N)N`, in test [2], the IC50 worked out at 1200 µM.
On the same count and under the same terms, to `CN(C)CCCC(=O)NS(C)(=O)=O` belongs above 5000 µM.
Same read-out and setting: to `N=C(N)NCCC(=O)NO` belongs 670 µM.
